# Like-named read-outs stand apart in the source and are kept apart here.
# Tests used:
# Experiment in all cases: KinomeScan kinase panel, single concentration 10 µM
# Format in all cases: binding
# [1] = target: T1, KinomeScan kinase panel (Homo sapiens, UniProt Q9NRP7); conditions: read-out: score (%)
# T1 construct: purchased DiscoveRx (KinomeScan)
# T1 sequence (Q9NRP7 1-1315): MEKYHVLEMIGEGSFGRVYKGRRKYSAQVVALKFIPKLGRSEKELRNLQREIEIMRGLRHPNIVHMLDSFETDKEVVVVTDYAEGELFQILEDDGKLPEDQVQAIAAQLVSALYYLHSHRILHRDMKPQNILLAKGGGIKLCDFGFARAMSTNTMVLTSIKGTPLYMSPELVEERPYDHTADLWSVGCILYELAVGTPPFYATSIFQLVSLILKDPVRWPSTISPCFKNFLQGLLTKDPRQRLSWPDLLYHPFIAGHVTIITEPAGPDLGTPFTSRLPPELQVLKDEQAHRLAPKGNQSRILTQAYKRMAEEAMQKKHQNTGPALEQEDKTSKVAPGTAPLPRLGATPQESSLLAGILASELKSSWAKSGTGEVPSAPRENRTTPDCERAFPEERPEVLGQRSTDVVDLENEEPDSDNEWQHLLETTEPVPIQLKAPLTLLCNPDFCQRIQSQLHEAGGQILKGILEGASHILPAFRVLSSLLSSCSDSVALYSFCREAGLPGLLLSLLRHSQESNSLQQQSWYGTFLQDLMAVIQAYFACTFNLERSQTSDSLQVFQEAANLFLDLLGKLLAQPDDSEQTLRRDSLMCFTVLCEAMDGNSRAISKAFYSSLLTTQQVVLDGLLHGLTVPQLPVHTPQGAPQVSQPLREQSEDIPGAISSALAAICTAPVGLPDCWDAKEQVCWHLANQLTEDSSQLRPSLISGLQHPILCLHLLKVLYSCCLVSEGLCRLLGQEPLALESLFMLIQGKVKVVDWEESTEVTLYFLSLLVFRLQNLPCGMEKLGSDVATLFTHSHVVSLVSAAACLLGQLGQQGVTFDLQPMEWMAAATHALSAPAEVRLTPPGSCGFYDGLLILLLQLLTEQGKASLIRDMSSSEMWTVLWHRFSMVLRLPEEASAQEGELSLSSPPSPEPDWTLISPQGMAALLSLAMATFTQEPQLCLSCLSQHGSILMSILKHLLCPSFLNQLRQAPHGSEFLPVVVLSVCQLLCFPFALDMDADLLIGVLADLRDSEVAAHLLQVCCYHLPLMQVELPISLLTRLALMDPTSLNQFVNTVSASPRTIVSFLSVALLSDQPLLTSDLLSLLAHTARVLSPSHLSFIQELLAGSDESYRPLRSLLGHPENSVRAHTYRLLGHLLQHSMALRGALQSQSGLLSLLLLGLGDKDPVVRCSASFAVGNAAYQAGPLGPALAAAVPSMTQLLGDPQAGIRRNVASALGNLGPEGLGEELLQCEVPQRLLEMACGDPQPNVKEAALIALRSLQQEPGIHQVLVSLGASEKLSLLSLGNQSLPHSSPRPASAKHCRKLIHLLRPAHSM
# [2] = target: T2, KinomeScan kinase panel (Homo sapiens, UniProt Q16659); conditions: ERK3, 10 µM; read-out: score (%)
# T2 construct: purchased DiscoveRx (KinomeScan)
# [3] = target: T3, KinomeScan kinase panel (Homo sapiens, UniProt Q9Y463); conditions: DYRK1B, 10 µM; read-out: score (%)
# T3 construct: purchased DiscoveRx (KinomeScan)
# [4] = target: T4, KinomeScan kinase panel (Homo sapiens, UniProt P29323); conditions: EPHB2, 10 µM
# T4 construct: purchased DiscoveRx (KinomeScan)
# T4 sequence (P29323 19-1055): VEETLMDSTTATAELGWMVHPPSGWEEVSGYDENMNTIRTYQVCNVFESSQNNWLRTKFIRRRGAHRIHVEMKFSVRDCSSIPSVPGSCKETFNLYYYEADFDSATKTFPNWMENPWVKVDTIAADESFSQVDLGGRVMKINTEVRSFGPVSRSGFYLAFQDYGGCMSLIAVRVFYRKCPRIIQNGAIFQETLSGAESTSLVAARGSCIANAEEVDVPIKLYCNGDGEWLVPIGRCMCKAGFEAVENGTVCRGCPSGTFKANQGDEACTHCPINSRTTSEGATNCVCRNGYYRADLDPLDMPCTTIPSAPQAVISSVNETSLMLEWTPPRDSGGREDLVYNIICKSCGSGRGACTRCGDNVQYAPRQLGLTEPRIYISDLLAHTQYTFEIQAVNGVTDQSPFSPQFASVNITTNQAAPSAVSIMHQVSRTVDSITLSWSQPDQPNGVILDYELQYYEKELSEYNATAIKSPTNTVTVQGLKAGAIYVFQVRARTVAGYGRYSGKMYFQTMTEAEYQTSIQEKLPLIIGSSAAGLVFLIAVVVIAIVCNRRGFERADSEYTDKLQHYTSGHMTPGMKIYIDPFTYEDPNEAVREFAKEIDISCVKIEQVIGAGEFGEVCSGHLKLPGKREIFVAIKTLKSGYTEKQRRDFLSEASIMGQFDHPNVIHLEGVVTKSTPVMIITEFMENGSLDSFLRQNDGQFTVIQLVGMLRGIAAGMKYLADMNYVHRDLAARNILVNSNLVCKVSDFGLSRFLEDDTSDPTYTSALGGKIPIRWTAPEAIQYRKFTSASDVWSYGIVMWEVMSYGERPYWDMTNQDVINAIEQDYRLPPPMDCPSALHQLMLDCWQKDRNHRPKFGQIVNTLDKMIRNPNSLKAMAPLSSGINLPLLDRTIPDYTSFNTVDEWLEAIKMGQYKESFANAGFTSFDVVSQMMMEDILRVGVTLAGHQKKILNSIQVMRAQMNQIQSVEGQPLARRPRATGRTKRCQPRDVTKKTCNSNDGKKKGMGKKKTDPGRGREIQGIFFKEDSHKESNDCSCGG
# [5] = target: T5, KinomeScan kinase panel (Homo sapiens, UniProt Q9Y6E0); conditions: MST3, 10 µM
# T5 construct: purchased DiscoveRx (KinomeScan)
# T5 sequence (Q9Y6E0 whole entry): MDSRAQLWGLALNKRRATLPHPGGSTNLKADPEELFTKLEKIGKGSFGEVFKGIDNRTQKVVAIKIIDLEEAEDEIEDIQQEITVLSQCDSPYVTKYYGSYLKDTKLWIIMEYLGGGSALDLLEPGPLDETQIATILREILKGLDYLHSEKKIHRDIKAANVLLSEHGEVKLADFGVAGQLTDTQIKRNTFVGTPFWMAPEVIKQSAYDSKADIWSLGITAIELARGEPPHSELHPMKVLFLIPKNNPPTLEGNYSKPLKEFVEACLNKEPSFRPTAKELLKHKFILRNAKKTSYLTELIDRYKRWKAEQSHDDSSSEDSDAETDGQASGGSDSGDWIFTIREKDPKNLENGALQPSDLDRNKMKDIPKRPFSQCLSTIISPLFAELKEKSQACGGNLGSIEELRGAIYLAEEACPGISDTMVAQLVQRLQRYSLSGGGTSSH
# T2 sequence (Q16659 whole entry): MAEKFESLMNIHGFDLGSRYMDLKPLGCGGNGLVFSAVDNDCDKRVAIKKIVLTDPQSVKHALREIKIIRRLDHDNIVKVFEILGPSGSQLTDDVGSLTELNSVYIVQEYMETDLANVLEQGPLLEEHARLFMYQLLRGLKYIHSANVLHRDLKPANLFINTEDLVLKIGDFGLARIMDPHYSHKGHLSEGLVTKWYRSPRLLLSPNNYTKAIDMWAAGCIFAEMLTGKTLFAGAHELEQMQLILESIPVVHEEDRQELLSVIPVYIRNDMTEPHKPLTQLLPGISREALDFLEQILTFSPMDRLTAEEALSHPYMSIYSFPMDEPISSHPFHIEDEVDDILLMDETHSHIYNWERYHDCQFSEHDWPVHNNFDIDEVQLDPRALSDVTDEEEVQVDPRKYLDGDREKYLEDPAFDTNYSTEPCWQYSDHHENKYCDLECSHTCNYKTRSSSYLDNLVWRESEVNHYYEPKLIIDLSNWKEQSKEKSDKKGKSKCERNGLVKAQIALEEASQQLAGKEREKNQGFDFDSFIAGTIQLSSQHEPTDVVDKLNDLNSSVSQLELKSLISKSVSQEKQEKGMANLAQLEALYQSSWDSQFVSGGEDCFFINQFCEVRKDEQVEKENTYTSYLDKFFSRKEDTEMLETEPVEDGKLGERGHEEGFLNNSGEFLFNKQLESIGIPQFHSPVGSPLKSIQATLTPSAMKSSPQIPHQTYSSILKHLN
# T3 sequence (Q9Y463 whole entry): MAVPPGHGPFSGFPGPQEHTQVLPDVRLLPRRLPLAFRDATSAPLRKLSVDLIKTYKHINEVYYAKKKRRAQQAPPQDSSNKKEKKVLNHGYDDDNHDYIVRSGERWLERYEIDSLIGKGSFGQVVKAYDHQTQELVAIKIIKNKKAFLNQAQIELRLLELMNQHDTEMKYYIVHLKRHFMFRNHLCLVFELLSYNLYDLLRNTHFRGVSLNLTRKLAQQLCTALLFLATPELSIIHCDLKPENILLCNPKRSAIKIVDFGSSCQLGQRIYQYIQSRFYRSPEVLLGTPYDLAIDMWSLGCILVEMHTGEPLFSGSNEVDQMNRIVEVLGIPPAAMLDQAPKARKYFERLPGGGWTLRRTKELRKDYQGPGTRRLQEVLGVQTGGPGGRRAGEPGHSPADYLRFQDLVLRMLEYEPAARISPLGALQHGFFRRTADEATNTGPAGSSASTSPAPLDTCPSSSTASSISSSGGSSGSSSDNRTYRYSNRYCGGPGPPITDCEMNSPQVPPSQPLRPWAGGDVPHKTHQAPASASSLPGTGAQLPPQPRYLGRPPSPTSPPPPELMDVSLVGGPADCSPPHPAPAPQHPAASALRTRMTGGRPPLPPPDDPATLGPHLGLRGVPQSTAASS
"remaining binding at 10 µM ([1]; STK36, 10 µM) [%]",Compound,"remaining binding at 10 µM ([1]; kinase STK36, 10 µM) [%]",remaining binding at 10 µM [2] [%],remaining binding at 10 µM [3] [%],score (%) [4] [%],score (%) [5]
–,CCN1CCN(Cc2ccc(NC(=O)c3ccc(C)c(NC(=O)c4cncc(-c5cccs5)c4)c3)cc2C(F)(F)F)CC1 [ALW-II-41-27],0.2,> 30,12,0,nb (Hits values higher than 30% were considered negative (no binding: nb))
0.05,"CCN1CCN(Cc2ccc(NC(=O)c3ccc(C)c(/C=C/c4cnc5[nH]ccc5c4Cl)c3)cc2C(F)(F)F)CC1 [HG-6-63-01, (E)-3-(2-(4-chloro-1H-pyrrolo[2,3-b]pyridin-5-yl)vinyl)-N-(4-((4-ethylpiperazin-1-yl)methyl)-3-(trifluoromethyl)phenyl)-4-methylbenzamide]",–,> 30,22,1.1,nb (Hits values higher than 30% were considered negative (no binding: nb))
–,CCN1CCN(Cc2ccc(NC(=O)c3ccc(C)c(C#Cc4cccnc4)c3)cc2C(F)(F)F)CC1 [XMD15-44],0.4,> 30,> 30,0.1,2.8%

# Source: publication PMC4457528, “Identification of Novel Small Molecule Inhibitors of Oncogenic RET Kinase” (PLoS ONE, 2015)
